According to ChEMBL document CHEMBL5291721, “A preclinical secondary pharmacology resource illuminates target-adverse drug reaction associations of marketed drugs” (Nat Commun, 2023):

Experiments:
[1] = target: T1, Peroxisome proliferator-activated receptor gamma (Homo sapiens, UniProt P37231); format: functional
T1 sequence (P37231 whole entry): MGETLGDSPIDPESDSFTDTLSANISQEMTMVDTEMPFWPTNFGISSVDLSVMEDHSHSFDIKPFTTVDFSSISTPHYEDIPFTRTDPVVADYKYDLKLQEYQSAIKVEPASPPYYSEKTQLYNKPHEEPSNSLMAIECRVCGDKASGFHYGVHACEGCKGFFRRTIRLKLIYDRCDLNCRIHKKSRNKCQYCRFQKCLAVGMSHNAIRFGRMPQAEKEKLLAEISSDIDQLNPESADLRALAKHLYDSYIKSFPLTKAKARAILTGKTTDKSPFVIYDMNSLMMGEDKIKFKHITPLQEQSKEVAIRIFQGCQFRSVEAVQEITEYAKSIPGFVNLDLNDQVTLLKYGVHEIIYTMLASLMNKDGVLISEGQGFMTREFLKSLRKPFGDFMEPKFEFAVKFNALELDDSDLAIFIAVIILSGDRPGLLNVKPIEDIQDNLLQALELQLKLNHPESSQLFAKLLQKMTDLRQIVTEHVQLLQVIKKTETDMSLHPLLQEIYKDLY

Glucocorticoid receptor [2] = target: T2, Glucocorticoid receptor (Homo sapiens, UniProt P04150); format: functional
T2 sequence (P04150 whole entry): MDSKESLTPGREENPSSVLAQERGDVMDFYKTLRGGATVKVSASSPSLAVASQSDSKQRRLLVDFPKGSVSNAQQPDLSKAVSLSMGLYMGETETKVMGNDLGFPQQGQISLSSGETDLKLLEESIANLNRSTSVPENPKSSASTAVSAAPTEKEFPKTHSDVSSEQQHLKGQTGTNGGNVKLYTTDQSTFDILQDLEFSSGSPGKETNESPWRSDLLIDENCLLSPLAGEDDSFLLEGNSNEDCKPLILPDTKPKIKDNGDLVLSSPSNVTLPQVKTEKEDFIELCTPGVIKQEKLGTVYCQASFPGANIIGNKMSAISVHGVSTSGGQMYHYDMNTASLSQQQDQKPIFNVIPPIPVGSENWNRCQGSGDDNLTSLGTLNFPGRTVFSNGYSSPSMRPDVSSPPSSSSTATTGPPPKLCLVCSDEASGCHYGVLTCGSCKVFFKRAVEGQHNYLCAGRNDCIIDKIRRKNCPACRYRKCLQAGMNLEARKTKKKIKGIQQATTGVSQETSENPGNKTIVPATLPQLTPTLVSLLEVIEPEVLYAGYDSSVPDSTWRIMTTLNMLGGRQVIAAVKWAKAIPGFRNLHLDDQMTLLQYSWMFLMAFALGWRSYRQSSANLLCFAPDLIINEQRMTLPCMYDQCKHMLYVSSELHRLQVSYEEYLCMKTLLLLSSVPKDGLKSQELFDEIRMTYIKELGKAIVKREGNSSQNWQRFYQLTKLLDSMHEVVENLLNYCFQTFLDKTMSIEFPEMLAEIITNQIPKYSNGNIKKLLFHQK

Glucocorticoid receptor [3] = target: T2, Glucocorticoid receptor; format: functional; remark: listed apart in the source
D(4) dopamine receptor = target: T3, D(4) dopamine receptor (Homo sapiens, UniProt P21917)
T3 sequence (P21917 whole entry): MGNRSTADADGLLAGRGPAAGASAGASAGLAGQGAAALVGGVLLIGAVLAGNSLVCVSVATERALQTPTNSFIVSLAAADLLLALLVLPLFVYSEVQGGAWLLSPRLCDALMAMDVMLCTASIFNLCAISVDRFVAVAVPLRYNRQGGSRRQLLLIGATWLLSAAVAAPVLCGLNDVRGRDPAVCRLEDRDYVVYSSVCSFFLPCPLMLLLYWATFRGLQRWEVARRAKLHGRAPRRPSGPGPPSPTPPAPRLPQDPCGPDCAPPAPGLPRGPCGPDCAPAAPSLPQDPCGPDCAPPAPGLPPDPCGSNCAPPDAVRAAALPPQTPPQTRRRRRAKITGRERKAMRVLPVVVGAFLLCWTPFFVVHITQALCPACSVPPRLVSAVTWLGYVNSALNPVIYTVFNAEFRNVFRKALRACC

[4] = target: 5-hydroxytryptamine receptor 7 (Homo sapiens, UniProt P34969)
5-hydroxytryptamine receptor 7, sequence (P34969 whole entry): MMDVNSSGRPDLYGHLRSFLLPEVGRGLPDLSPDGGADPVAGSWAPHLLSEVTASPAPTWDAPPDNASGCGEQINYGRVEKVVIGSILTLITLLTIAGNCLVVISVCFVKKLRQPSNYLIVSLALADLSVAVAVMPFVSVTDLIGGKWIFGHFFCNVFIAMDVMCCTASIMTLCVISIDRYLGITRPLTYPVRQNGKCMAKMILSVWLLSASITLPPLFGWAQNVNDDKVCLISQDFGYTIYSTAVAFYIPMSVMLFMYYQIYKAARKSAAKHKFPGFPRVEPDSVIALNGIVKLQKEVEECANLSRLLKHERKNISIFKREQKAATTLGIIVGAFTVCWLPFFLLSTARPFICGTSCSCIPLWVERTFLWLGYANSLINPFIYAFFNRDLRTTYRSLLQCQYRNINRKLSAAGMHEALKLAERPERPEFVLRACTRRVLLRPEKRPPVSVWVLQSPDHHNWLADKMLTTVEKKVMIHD

Progesterone receptor = target: T4, Progesterone receptor (Homo sapiens, UniProt P06401)
T4 sequence (P06401 whole entry): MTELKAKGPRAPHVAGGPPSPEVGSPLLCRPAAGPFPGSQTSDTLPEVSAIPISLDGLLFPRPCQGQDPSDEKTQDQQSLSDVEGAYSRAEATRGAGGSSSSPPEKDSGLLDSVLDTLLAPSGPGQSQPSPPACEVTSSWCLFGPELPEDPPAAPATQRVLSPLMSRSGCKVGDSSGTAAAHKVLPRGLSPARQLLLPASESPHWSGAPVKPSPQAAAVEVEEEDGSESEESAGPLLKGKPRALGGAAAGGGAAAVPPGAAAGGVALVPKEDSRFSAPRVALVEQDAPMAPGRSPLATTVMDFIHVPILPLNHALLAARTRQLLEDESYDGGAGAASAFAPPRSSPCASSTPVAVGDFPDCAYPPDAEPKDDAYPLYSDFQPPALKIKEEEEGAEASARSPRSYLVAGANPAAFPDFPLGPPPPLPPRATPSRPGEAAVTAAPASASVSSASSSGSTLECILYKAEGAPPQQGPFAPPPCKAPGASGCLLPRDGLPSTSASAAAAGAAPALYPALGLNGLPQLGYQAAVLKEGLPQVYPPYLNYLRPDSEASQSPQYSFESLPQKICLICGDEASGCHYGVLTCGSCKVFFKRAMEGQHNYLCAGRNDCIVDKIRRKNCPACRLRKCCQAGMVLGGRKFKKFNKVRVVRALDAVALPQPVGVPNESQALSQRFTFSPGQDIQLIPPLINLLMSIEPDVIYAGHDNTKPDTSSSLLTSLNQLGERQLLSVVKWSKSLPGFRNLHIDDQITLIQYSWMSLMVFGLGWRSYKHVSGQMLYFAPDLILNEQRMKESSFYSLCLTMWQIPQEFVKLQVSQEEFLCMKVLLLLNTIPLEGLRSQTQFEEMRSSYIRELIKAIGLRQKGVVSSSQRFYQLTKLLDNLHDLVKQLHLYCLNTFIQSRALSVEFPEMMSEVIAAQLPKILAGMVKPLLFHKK
Further: assay procedure not described here.

| Compound | AC50 [1] [µM] | AC50 (Glucocorticoid receptor [2]) [µM] | AC50 (Glucocorticoid receptor [3]) [µM] | AC50 (D(4) dopamine receptor) [µM] | AC50 [4] [µM] | AC50 (Progesterone receptor) [µM] |
| --- | --- | --- | --- | --- | --- | --- |
| CO/N=C(\C(=O)N[C@@H]1C(=O)N2C(C(=O)[O-])=C(C[N+]3(C)CCCC3)CS[C@H]12)c1csc(N)n1 | 200 | > 300 | > 300 | – | – | – |
| CCOC(=O)[C@H](CCc1ccccc1)N[C@@H](C)C(=O)N1CCC[C@H]1C(=O)O | – | – | – | > 10 | > 10 | – |
| Nc1nc(N)c2nc(-c3ccccc3)c(N)nc2n1 | – | – | – | > 10 | > 10 | > 30 |
| C[C@H]1O[C@H](O[C@H]2[C@H](O)[C@@H](O)[C@@H](O[C@H]3[C@H](O)[C@@H](O)C(O)O[C@@H]3CO)O[C@@H]2CO)[C@H](O)[C@@H](O)[C@@H]1N[C@H]1C=C(CO)[C@@H](O)[C@H](O)[C@H]1O (stereo not given in full) [ACARBOSE] | – | – | – | > 10 | > 10 | > 30 |
| CC(=O)c1ccc2c(c1)N(CCCN1CCN(CCO)CC1)c1ccccc1S2 [ACETOPHENAZINE] | > 30 | > 30 | > 30 | – | – | – |
| Oc1ncnc2[nH]ncc12 [ALLOPURINOL] | – | – | – | > 10 | – | > 30 |
| CC(N)Cc1ccccc1 (stereo not given) [AMPHETAMINE] | > 30 | > 30 | > 30 | – | – | > 30 |
| CN1CCCC(n2nc(Cc3ccc(Cl)cc3)c3ccccc3c2=O)CC1 (stereo not given) [AZELASTINE] | > 30 | > 30 | > 30 | – | – | – |
| CC(C)NCC(O)COc1ccc(COCCOC(C)C)cc1 (stereo not given) [BISOPROLOL] | – | – | – | > 10 | – | > 30 |
| COc1cc(Nc2c(C#N)cnc3cc(OCCCN4CCN(C)CC4)c(OC)cc23)c(Cl)cc1Cl [BOSUTINIB] | – | – | – | > 10 | > 10 | > 30 |
| N[C@@H](C(=O)N[C@@H]1C(=O)N2C(C(=O)O)=C(Cl)CS[C@H]12)c1ccccc1 [CEFACLOR ANHYDROUS] | > 30 | – | – | – | – | – |
| CCC[C@@H]1C[C@@H](C(=O)N[C@@H]([C@H]2O[C@H](SC)[C@H](O)[C@@H](O)[C@H]2O)[C@H](C)Cl)N(C)C1 [CLINDAMYCIN] | – | – | – | > 10 | – | > 30 |
| CN(CCOc1ccc(NS(C)(=O)=O)cc1)CCc1ccc(NS(C)(=O)=O)cc1 [DOFETILIDE] | – | – | – | > 10 | – | > 30 |
| COc1cc2c(cc1OC)C(=O)C(CC1CCN(Cc3ccccc3)CC1)C2 (stereo not given) [DONEPEZIL] | – | – | – | 0.824 | > 10 | > 30 |
| COC(=O)[C@@H]1CC2=CC(=O)CC[C@]2(C)[C@@]23O[C@@H]2C[C@@]2(C)[C@@H](CC[C@@]24CCC(=O)O4)[C@H]13 [EPLERENONE] | > 30 | – | – | – | – | – |
| C#C[C@]1(O)CC[C@H]2[C@@H]3CCc4cc(O)ccc4[C@H]3CC[C@@]21C [ETHINYL ESTRADIOL] | – | > 30 | > 30 | > 10 | > 30 | > 30 |
| NC(N)=Nc1nc(CSCCC(N)=NS(N)(=O)=O)cs1 [FAMOTIDINE] | – | – | – | > 10 | > 10 | > 30 |
| COc1ccc2c(c1)C(=O)N(CCc1ccc(S(=O)(=O)NC(=O)NC3CCCCC3)cc1)C(=O)C2(C)C [GLIQUIDONE] | – | 8.9 | > 30 | – | – | – |

| Compound | AC50 [1] [µM] | AC50 (Glucocorticoid receptor [2]) [µM] | AC50 (Glucocorticoid receptor [3]) [µM] | AC50 (D(4) dopamine receptor) [µM] | AC50 [4] [µM] | AC50 (Progesterone receptor) [µM] |
| --- | --- | --- | --- | --- | --- | --- |
| NS(=O)(=O)c1cc2c(cc1Cl)NCNS2(=O)=O [HYDROCHLOROTHIAZIDE] | – | – | – | > 10 | > 10 | > 30 |
| CC(C)Cc1ccc(CC(=O)O)cc1 [IBUFENAC] | > 30 | > 30 | > 30 | – | – | – |
| CC(C)NNC(=O)c1ccncc1 [IPRONIAZID] | > 30 | > 30 | > 30 | – | – | – |
| CCN(CC)CCNC(=O)c1cc(Cl)c(N)cc1OC [METOCLOPRAMIDE] | – | – | – | 1.16 | – | > 30 |
| Cc1cccc(C)c1OCC(C)N (stereo not given) [MEXILETINE] | > 30 | – | – | – | – | – |
| NC(=O)c1ncn([C@@H]2O[C@H](CO)[C@@H](O)[C@H]2O)c1O [MIZORIBINE] | > 30 | – | – | – | – | – |
| CCc1nn(CCCN2CCN(c3cccc(Cl)c3)CC2)c(=O)n1CCOc1ccccc1 [NEFAZODONE] | – | – | – | 0.271 | 0.237 | > 30 |
| OCCN1CCN(CCCN2c3ccccc3C=Cc3ccccc32)CC1 [OPIPRAMOL] | > 30 | – | – | – | – | – |
| NC1=NC(=O)C(c2ccccc2)O1 (stereo not given) [PEMOLINE] | – | – | – | – | – | > 30 |
| CCc1ccc(CCOc2ccc(CC3SC(=O)NC3=O)cc2)nc1 (stereo not given) [PIOGLITAZONE] | – | – | – | > 10 | > 10 | > 30 |
| CC(C(=O)O)c1ccc(N2CC=CC2)c(Cl)c1 (stereo not given) [PIRPROFEN] | – | – | – | > 10 | – | > 30 |
| CC[C@H](C)C(=O)O[C@H]1C[C@H](O)C=C2C=C[C@H](C)[C@H](CC[C@@H](O)C[C@@H](O)CC(=O)O)[C@H]21 [PRAVASTATIN] | > 30 | > 30 | > 30 | – | – | – |
| NC(=O)c1cnccn1 [PYRAZINAMIDE] | – | – | – | > 10 | > 10 | > 30 |
| O=C(NC[C@H]1CN(c2ccc(N3CCOCC3=O)cc2)C(=O)O1)c1ccc(Cl)s1 [RIVAROXABAN] | – | > 30 | > 30 | – | – | – |
| Cc1ccc(C(=O)c2cc(O)c(O)c([N+](=O)[O-])c2)cc1 [TOLCAPONE] | – | > 30 | 14 | – | – | – |
| OCc1cc([C@@H](O)CNCCCCCCOCCOCc2c(Cl)cccc2Cl)ccc1O [VILANTEROL] | > 30 | > 30 | > 30 | – | – | – |
| O=C(CCCCCCC(=O)Nc1ccccc1)NO [VORINOSTAT] | – | – | – | > 10 | > 10 | – |
